Values of other authors as cited in patent US9018178B2, “Method for the treatment of food, feed and agricultural products with a polyene antifungal compound” (DSM IP Assets B.V., priority 2007, dated 2015).

System: common food spoilage yeasts and moulds
Conditions: most strains of common food spoilage yeasts and moulds

For `C[C@@H]1C/C=C/C=C/C=C/C=C/[C@H](O[C@@H]2O[C@H](C)[C@@H](O)[C@H](N)[C@@H]2O)C[C@@H]2O[C@](O)(C[C@@H](O)C[C@H]3O[C@@H]3/C=C/C(=O)O1)C[C@H](O)[C@H]2C(=O)O` [natamycin], the “Concentrations inhibiting most strains” value is listed as 1-15 ppm.
